Results reported in the supplement of paper PMC12463676, “Small-molecule dissolution of stress granules by redox modulation benefits ALS models” (Nature Chemical Biology, 2025).

Assays:
lipoamide = compound: NC(=O)CCCCC1CCSS1 [lipoamide]; assay: thermal stability z-score vs DMSO; higher = more thermally stabilized by treatment; conditions: HeLa, lipoamide concentration 100 µM
Description: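 Cellular thermal proteome profiling in HeLa cells. Cells were treated with 100 µM lipoamide for 1 h, with or without 1 mM arsenate for a further 1 h, then heated to ten temperatures (37-66.3 °C), and soluble protein was quantified by TMT mass spectrometry relative to 0.1% DMSO controls. The thermal stability score (sum of log2 fold changes minus the abundance score) was transformed to a z-score; mean of n = 3 experiments.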

potassium arsenate = compound: O=[As]([O-])(O)O.[K+] [potassium arsenate]; assay: as above; conditions: HeLa; arsenate concentration 1 mM
Description: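 Cellular thermal proteome profiling in HeLa cells treated with 1 mM arsenate for 1 h (DMSO pretreatment), heated to ten temperatures (37-66.3 °C). Soluble protein was quantified by TMT mass spectrometry relative to DMSO controls; the thermal stability score was transformed to a z-score; mean of n = 3 experiments.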

[1] = arsenate co-treatment: 1 mM arsenate 1 h
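Further: each temperature applied for 3 min, abundance score taken as mean log2 fold change at the two lowest temperatures, z-score obtained by mean subtraction and division by SD.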

Sequence of UniProt O75581 (O75581 whole entry): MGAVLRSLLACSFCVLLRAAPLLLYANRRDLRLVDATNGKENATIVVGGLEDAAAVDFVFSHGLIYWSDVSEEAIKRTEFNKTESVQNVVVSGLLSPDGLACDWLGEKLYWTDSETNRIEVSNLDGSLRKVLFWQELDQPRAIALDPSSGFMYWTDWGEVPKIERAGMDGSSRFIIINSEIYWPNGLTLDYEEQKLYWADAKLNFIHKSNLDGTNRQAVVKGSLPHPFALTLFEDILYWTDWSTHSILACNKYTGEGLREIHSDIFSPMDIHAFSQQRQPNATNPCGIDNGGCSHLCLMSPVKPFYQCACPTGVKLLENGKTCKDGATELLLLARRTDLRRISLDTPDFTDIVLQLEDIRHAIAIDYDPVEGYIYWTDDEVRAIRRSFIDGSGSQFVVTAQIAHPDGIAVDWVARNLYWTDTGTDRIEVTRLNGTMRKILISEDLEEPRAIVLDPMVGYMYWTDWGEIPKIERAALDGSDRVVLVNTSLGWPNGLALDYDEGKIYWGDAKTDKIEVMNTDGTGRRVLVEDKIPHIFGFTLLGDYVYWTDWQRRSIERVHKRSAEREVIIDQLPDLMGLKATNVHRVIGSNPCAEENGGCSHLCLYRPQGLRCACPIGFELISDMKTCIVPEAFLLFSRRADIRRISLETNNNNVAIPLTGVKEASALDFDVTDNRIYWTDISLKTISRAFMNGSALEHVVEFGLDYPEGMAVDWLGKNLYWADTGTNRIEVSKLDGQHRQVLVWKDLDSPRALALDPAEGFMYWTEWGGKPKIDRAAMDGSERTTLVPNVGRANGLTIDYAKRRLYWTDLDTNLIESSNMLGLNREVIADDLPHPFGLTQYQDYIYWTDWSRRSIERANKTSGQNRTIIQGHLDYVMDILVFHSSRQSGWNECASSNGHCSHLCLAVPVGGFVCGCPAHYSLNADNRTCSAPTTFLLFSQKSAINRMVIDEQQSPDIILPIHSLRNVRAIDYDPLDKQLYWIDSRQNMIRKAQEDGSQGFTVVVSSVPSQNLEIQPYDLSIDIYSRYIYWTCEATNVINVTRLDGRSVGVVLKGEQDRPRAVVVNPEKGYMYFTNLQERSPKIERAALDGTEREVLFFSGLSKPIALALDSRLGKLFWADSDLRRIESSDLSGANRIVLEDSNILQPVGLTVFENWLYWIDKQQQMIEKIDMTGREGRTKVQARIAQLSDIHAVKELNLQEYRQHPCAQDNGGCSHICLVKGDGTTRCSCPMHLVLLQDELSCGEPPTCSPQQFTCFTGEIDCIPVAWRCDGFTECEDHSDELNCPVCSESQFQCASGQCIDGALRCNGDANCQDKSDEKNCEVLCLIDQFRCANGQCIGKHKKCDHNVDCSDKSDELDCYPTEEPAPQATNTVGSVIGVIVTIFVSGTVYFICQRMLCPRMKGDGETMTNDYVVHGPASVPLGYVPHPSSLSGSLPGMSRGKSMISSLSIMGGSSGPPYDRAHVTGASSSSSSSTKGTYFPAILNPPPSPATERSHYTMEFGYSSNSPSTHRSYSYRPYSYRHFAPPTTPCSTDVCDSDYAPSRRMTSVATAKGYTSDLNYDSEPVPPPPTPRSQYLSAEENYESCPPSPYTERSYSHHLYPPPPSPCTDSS
Sequence of UniProt Q17RY6 (Q17RY6 whole entry): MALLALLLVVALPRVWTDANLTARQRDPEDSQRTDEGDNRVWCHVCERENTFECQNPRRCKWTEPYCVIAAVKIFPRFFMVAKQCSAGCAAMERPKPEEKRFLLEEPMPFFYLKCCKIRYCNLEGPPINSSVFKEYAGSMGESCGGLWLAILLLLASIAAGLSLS
Sequence of UniProt Q9NQ29 (Q9NQ29 whole entry): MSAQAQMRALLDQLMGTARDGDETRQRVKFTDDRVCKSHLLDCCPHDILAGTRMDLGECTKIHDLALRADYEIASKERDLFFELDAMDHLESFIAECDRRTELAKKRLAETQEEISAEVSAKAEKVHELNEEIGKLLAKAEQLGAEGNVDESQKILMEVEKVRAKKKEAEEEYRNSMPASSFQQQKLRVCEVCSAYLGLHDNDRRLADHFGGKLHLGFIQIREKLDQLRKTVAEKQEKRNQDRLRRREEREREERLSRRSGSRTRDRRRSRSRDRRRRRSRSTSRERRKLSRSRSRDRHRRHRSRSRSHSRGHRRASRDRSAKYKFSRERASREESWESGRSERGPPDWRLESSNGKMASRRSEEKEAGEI
Sequence of UniProt Q7L5N7 (Q7L5N7 whole entry): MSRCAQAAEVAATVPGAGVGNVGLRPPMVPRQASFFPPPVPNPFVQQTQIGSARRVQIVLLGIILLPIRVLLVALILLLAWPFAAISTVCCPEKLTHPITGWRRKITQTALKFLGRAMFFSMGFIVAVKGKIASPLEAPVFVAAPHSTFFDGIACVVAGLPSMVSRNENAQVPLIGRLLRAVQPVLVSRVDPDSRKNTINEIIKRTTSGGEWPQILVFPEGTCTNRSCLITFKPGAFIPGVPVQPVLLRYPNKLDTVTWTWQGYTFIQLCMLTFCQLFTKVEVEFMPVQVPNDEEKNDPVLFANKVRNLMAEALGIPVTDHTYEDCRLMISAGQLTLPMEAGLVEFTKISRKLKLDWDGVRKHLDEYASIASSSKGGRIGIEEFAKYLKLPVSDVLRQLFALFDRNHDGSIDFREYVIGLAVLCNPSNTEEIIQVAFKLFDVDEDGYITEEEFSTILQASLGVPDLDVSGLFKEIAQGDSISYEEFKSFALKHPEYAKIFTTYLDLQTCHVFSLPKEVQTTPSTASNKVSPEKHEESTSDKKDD
Sequence of UniProt Q9H9A6 (Q9H9A6 whole entry): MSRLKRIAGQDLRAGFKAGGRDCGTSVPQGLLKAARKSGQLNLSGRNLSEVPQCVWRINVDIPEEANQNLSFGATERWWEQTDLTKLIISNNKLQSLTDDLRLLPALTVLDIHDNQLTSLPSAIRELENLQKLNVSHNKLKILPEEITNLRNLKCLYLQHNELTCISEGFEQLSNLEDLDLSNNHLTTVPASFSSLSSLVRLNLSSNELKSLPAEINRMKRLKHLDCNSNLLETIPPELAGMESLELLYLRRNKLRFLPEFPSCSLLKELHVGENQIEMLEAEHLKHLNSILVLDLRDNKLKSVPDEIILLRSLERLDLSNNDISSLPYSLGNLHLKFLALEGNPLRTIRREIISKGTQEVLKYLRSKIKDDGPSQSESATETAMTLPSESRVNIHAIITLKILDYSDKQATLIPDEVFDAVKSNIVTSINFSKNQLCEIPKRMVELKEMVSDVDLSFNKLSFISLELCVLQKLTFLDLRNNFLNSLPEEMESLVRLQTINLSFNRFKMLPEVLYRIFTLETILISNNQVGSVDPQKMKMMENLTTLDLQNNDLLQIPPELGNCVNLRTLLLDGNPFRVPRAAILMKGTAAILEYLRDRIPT
Sequence of UniProt Q14693 (Q14693 whole entry): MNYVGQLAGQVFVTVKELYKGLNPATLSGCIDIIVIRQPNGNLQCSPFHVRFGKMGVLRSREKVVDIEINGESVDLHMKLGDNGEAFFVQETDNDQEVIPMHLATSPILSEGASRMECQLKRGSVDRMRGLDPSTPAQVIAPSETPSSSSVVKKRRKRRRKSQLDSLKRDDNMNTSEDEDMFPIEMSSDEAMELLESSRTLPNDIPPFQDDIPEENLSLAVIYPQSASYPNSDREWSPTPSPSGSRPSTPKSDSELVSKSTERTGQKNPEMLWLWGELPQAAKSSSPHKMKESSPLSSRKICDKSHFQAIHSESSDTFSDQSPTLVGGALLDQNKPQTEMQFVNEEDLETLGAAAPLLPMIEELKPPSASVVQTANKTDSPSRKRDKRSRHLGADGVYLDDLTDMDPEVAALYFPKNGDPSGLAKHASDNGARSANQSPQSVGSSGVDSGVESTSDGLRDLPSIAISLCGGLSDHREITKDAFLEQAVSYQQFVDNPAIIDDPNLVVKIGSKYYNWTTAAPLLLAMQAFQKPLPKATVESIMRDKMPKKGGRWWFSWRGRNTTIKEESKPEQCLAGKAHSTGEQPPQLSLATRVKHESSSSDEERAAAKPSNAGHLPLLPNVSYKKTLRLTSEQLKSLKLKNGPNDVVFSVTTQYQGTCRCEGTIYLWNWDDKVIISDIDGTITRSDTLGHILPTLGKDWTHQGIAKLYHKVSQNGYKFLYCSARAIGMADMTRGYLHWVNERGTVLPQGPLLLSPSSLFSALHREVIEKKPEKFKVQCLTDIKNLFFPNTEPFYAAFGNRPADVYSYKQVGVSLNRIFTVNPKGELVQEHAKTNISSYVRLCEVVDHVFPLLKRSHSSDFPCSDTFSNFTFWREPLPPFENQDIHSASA
Sequence of UniProt Q9Y4K0 (Q9Y4K0 whole entry): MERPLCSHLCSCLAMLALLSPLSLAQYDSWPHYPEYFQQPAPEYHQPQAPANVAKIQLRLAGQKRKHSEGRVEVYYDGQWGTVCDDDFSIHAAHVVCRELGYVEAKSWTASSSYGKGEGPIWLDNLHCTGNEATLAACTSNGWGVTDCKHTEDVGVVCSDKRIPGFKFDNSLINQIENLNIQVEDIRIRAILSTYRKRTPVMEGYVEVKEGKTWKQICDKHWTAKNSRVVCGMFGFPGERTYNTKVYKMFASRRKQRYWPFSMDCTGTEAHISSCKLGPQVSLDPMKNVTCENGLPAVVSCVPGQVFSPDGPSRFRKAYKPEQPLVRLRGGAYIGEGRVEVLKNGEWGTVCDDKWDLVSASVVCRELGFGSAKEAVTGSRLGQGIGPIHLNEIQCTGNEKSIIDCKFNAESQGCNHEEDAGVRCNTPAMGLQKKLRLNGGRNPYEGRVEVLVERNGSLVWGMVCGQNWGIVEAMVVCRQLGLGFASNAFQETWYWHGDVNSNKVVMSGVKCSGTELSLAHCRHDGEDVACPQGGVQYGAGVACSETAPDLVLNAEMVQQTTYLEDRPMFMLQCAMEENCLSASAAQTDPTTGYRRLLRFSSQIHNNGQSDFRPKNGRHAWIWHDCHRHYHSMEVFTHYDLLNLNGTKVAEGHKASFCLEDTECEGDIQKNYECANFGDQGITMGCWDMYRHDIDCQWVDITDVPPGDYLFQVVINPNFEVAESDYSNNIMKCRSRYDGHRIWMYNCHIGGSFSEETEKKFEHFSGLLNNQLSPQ
Sequence of UniProt P62312 (P62312 whole entry): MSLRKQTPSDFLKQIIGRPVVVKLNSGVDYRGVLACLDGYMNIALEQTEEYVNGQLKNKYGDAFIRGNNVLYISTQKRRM

Target	thermal stability z-score (lipoamide; [1])	thermal stability z-score (lipoamide; arsenate co-treatment: none)	thermal stability z-score (potassium arsenate)
LMO4 (UniProt P61968)	0.548	0.0182	0.164
LMO7 (UniProt Q8WWI1)	1.17	0.27	-1.54
LMTK2 (UniProt Q8IWU2)	-0.465	-0.397	1.04
LNP (UniProt Q9C0E8)	-1.09	-0.771	-0.997
LNPEP (UniProt Q9UIQ6)	0.328	0.227	0.249
LOC102723897|WASH3P|WASH2P	0.179	-0.15	0.051
LONP1 (UniProt P36776)	-0.482	-0.277	-0.763
LONP2 (UniProt Q86WA8)	-0.55	-0.13	0.393
LOXL2 (UniProt Q9Y4K0)	-1.8	-1.35	-0.197
LPCAT1 (UniProt Q8NF37)	-0.369	-0.129	0.149
LPCAT2 (UniProt Q7L5N7)	-0.337	0.245	0.944
LPCAT3 (UniProt Q6P1A2)	0.125	0.0829	0.724
LPCAT4 (UniProt Q643R3)	-0.953	0.367	0.519
LPGAT1 (UniProt Q92604)	-0.218	0.0487	0.251
LPIN1 (UniProt Q14693)	-0.429	-0.906	-1.07
LPIN2 (UniProt Q92539)	0.528	0.214	0.00612
LPP (UniProt Q93052)	-0.407	-0.444	-5.37
LRBA (UniProt P50851)	0.015	0.0915	0.326
LRCH1 (UniProt Q9Y2L9)	0.0183	0.0529	0.494
LRCH3 (UniProt Q96II8)	-0.0719	-0.00251	-0.153
LRCH4 (UniProt O75427)	0.0394	-0.101	-0.13
LRP1 (UniProt Q07954)	-1.1	-1.01	-0.0899
LRP6 (UniProt O75581)	-2.59	-1.1	-0.531
LRP8 (UniProt Q14114)	-0.785	-0.422	-0.43

Target	thermal stability z-score (lipoamide; [1])	thermal stability z-score (lipoamide; arsenate co-treatment: none)	thermal stability z-score (potassium arsenate)
LRPAP1 (UniProt P30533)	-1.07	-0.56	-0.32
LRPPRC (UniProt P42704)	-1.08	-0.312	-0.267
LRR1 (UniProt Q96L50)	0.148	0.192	-0.256
LRRC8A (UniProt Q8IWT6)	0.614	0.234	-0.275
LRRC8D (UniProt Q7L1W4)	0.38	-0.0451	-0.198
LRRC8E (UniProt Q6NSJ5)	0.43	-0.139	-0.237
LRRC16A (UniProt Q5VZK9)	0.276	0.0854	1.26
LRRC40 (UniProt Q9H9A6)	-0.119	0.108	0.245
LRRC41 (UniProt Q15345)	-0.134	-0.26	-0.546
LRRC42 (UniProt Q9Y546)	-0.294	-0.0469	-0.0558
LRRC45 (UniProt Q96CN5)	-0.00638	0.0708	0.0892
LRRC47 (UniProt Q8N1G4)	0.175	0.38	1.06
LRRC57 (UniProt Q8N9N7)	0.252	-0.185	-0.186
LRRC59 (UniProt Q96AG4)	-0.768	-0.195	-1.86
LRRFIP1 (UniProt Q32MZ4)	0.409	0.475	0.228
LRRFIP2 (UniProt Q9Y608)	1.31	1.11	1.07
LRSAM1 (UniProt Q6UWE0)	-0.763	-0.714	-0.676
LRWD1 (UniProt Q9UFC0)	-0.0805	-0.0419	-0.324
LSG1 (UniProt Q9H089)	-0.18	0.17	3.55
LSM1 (UniProt O15116)	1.6	2.05	0.83
LSM2 (UniProt Q9Y333)	0.00908	0.0523	-0.136
LSM3 (UniProt P62310)	0.229	-0.327	-0.624
LSM4 (UniProt Q9Y4Z0)	0.426	0.265	0.216
LSM5 (UniProt Q9Y4Y9)	-0.69	0.0925	-1.23

Target	thermal stability z-score (lipoamide; [1])	thermal stability z-score (lipoamide; arsenate co-treatment: none)	thermal stability z-score (potassium arsenate)
LSM6 (UniProt P62312)	0.895	0.267	-0.309
LSM7 (UniProt Q9UK45)	0.466	0.456	-0.425
LSM8 (UniProt O95777)	1.17	0.47	-0.214
LSM12 (UniProt Q3MHD2)	-0.205	0.447	-0.27
LSM14A (UniProt Q8ND56)	0.62	-0.111	1.03
LSM14B (UniProt Q9BX40)	-0.354	0.0171	0.218
LSR (UniProt Q86X29)	0.221	-0.243	-0.177
LSS (UniProt P48449)	0.724	0.345	-0.00616
LTA4H (UniProt P09960)	0.357	0.32	-0.164
LTBR (UniProt P36941)	-2.06	-1.66	0.85
LTN1 (UniProt O94822)	0.0185	0.0878	0.0334
LTV1 (UniProt Q96GA3)	0.231	-0.172	1.01
LUC7L3 (UniProt O95232)	-1.15	-0.26	-0.899
LUC7L (UniProt Q9NQ29)	-0.243	-0.433	-1.2
LUZP1 (UniProt Q86V48)	-0.424	-0.079	-0.191
LXN (UniProt Q9BS40)	0.274	0.0402	0.992
LY6K (UniProt Q17RY6)	-3.06	-2.7	2.42
LYAR (UniProt Q9NX58)	-0.425	-0.893	-3.87
LYN (UniProt P07948)	0.264	0.362	-0.89
LYPD3 (UniProt O95274)	-0.113	0.0676	-0.484
LYPLA1 (UniProt O75608)	0.624	-0.159	-0.862
LYPLA2 (UniProt O95372)	0.141	0.194	0.209
LYPLAL1 (UniProt Q5VWZ2)	0.152	0.0691	0.447
